Data taken from publication PMC4001449, “Thienoquinolines as Novel Disruptors of the PKCε/RACK2 Protein–Protein Interaction” (Journal of Medicinal Chemistry, 2014).

Columns and labels:
PKCδ = PKCδ translocation, cell fractionation and Western blotting in PC-3 cells; type: cell-based, human; conditions: TPA, Figure 3
Protocol: For PKCε translocation PC-3 cells were starved for 16 h, treated with 8 for 30 min, stimulated with 50 nM TPA for 5 min, lysed, and fractionated with a CNMCS/CNM compartmental protein extraction kit (BioChain Institute, Newark, CA). Western blotting was performed by a standard procedure as described by Garczarczyk et al.[27],[40] Cytosolic and membrane fractions were loaded onto SDS gels and transferred to an Immobilon membrane (Millipore, Billerica, MA). The membranes were incubated with rabbit polyclonal IgG antibodies for detection of PKCε (Santa Cruz Biotechnology; dilution 1:2000), for PKCε phosphoSer^729 (Millipore; dilution 1:1000), for PKCδ (Santa Cruz Biotechnology; dilution 1:1000), and for MARCKS phosphoSer152/156 (Cell Signaling Technology, Danvers, MA; dilution 1:1000). For the loading control tubulin (Santa Cruz Biotechnology; dilution 1:1000), and as marker for the membrane fraction, an IGFI-βR rabbit polyclonal IgG antibody (Santa Cruz; dilution 1:1000) and, as secondary antibodies, peroxidase-conjugated AffiniPure goat anti-rabbit IgG (Jackson ImmunoResearch Laboratories, West Grove, PA; dilution 1:20000) were used. GAPDH (Chemicon, Millipore, Billerica, MA; dilution 1:10000) was used as loading control for the cytosolic fraction. […]

NUAK1 = target: T1, NUAK1 (Homo sapiens, UniProt O60285); experiment: Kinase profiling (Dundee), NUAK1; type: biochemical; conditions: 25 μM solution
T1 sequence (O60285 1-661): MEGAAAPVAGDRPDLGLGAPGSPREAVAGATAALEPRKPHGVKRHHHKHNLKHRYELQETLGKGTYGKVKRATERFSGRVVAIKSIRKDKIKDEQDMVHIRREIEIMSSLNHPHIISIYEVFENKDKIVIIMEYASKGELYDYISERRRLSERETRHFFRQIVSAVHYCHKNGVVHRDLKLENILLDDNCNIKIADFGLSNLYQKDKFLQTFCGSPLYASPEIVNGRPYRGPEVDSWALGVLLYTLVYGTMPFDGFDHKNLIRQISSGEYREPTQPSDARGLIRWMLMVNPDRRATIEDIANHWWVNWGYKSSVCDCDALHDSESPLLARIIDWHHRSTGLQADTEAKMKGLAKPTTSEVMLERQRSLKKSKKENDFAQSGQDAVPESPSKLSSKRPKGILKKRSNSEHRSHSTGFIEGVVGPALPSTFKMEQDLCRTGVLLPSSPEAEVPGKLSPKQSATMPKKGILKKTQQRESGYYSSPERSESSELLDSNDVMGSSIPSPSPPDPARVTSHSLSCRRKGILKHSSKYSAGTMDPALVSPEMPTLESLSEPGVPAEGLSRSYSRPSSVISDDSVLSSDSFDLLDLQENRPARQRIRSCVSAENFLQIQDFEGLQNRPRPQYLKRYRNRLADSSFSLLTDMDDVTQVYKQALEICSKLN

[1] = test system: VEGF-induced angiogenesis in chicken egg; experiment: Chicken egg angiogenesis assay; type: in vivo; conditions: Figure 8
Protocol: Eggs from hen were incubated at 37 °C for 3 days, opened, and incubated for further 7 days. After further incubation for 5 days, angiogenesis was observed by microscope.

[2] = test system: HeLa cells containing a doxycycline-inducible constitutively active PKCε; experiment: Scratch migration assay; type: cell-based; conditions: 25 μM, 24 h, doxycycline 2 μg/mL
Protocol: For cell migration and motility, a scratch migration assay described by Cha et al.[41] was employed. In a tissue culture dish, with logarithmically growing HeLa cells containing a doxycycline-inducible constitutively active PKCε, a migration gap of approximately 1 mm was created by introducing a “scratch” to the adherent layer of cultured cells using a sterile Gilson 200 μL pipet tip. The scratch was administered by hand with sufficient pressure to remove adherent cells from the polystyrene substrate but without causing physical damage to the polystyrene surface. The dish was washed with PBS to remove the cells and further incubated with 2 μg/mL doxycycline and 25 μM 8 for 24 h. Controls were left either untreated or were incubated with 2 μg/mL doxycycline and DMSO. […] Invasion of HeLa cells through a reconstituted basement membrane matrix was determined with a cell invasion assay kit from Chemicon (no. ECM550) as described by the manufacturer.

PKCε = PKCε translocation by immunofluorescence in PC-3 cells; type: cell-based, human; conditions: Figure 4
Protocol: PC-3 cells were grown on glass coverslips coated with poly-L-lysine (Sigma-Aldrich). After treatment with 8 for 30 min and with 100 nM TPA for 5 min, the cells were rinsed twice with phosphate buffered saline (PBS) and fixed with filter sterilized 4% (w/v) paraformaldehyde/4% sucrose (w/v) (both from Sigma-Aldrich) in PBS at room temperature for 10 min. Subsequently the cells were washed three times with PBS and permeabilized with 0.2% Triton X-100/0.2% IgG-free BSA in PBS at room temperature for 10 min. After blocking with 5% normal goat serum diluted in PBS as described above for 30 min, cells were incubated with the primary antibodies for PKCε (Santa Cruz; diluted 1:500) in 0.2% Triton X-100/0.2% IgG-free BSA in PBS at 4 °C overnight. Subsequently, the cells were washed three times with the same buffer and incubated with the labeled secondary antibody (Alexa Fluor, Invitrogen, Life Technologies, Carlsbad, CA; 1:4000) at room temperature for 1 h. After three more washes with 0.2% Triton X-100/0.2% IgG-free BSA in PBS, cells were mounted with Mowiol (Sigma-Aldrich) and images were taken with an Olympus BX 50 optical microscope (Olympus Corporation, Tokyo, Japan).

PIM3 = PIM3 (Homo sapiens, UniProt Q86V86); experiment: Kinase profiling (Dundee), PIM3; type: biochemical; conditions: 25 μM solution
RSK2 = RSK2 (Homo sapiens, UniProt P51812); experiment: Kinase profiling (Dundee), RSK2; type: biochemical; conditions: 25 μM solution
Sequence of RSK2 (P51812 whole entry, species assumed): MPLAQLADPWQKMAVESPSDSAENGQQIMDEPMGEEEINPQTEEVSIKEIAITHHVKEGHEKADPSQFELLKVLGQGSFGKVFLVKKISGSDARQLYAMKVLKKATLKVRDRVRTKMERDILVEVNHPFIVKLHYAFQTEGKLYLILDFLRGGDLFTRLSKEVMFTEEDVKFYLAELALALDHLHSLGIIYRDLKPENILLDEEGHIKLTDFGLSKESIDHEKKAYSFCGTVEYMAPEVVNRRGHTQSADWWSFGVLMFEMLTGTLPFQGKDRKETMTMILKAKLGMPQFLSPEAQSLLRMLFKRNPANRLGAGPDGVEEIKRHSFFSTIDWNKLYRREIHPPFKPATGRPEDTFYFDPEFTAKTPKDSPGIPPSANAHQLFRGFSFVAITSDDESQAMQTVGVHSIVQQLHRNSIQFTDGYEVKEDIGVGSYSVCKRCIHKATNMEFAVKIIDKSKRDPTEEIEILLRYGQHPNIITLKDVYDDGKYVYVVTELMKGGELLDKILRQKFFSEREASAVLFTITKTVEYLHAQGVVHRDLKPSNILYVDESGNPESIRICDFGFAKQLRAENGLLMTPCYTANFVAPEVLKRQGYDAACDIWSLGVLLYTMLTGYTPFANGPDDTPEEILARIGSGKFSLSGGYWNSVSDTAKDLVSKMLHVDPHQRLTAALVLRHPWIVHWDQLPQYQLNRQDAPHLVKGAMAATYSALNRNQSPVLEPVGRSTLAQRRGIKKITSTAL

Structure (SMILES): CC(=O)c1cccc(NC(=O)c2sc3nc4cc5c(cc4cc3c2N)OCCO5)c1 [Compound 8, N-(3-acetylphenyl)-9-amino-2,3-dihydro-1,4-dioxino[2,3-g]thieno[2,3-b]quinoline-8-carboxamide]
- PKCδ in the membrane (PKCδ): did not decrease
- NUAK1 activity, % of control (NUAK1): 49 % of control
- Induction of angiogenesis by vascular endothelial growth factor [1]: inhibited
- PKCε-induced migration of cells into a gap [2]: inhibited
- TPA-induced PKCε translocation to the plasma membrane (immunocytochemistry) (PKCε): prevented
- PIM3 activity, % of control (PIM3): 46 % of control
- RSK2 activity, % of control (RSK2): 27 % of control
